# The source made the active and inactive calls. The calls are words filed in the database; no cut-off is given here.
# Columns and labels:
# [1] = biological target: T1, Phosphatidylinositol 4,5-bisphosphate 3-kinase catalytic subunit alpha isoform (Homo sapiens, UniProt P42336); assay: Inhibition of PI3Kalpha (unknown origin) using PIP2:3PS as substrate in presence of ATP measured after 120 mins by ADP-Glo assay
# Homo sapiens [2] = species: Homo sapiens; assay: Selectivity ratio of Ki for PI3Kdelta (unknown origin) to Ki for PI3Kalpha (unknown origin)
# Homo sapiens [3] = species: Homo sapiens; assay: Selectivity ratio of EC50 for PI3Kalpha H1047R mutant in human HCC1954 cells assessed as reduction in PRAS40 phosphorylation to EC50 for wild type PI3Kalpha in human HDQ-P1 cells assessed as reduction in PRAS40 phosphorylation; type: cell-based
# [4] = Lipophilicity, logD of compound in 1-Octanol/PBS at pH 7.4 by LC-MS/MS method; type: physicochemical
# [5] = Kinetic solubility of the compound at pH 7.4; type: physicochemical; settings: buffer, read-out: Kinetic_solubility
# [6] = Apparent permeability across apical to basolateral side in MDCK cells at 10 uM measured upto 180 mins by LC-MS/MS method; type: ADME, cell-based, Canis lupus familiaris; settings: dog
# [7] = Clearance in Sprague-Dawley rat plasma at 1 mg/kg, iv measured upto 8 hrs by LC-MS/MS analysis; type: ADME, organism-based
# [8] = Oral bioavailability in Sprague-Dawley rat plasma at 5 mg/kg measured upto 8 hrs by LC-MS/MS method; type: ADME, organism-based
# [9] = biological target: T1, Phosphatidylinositol 4,5-bisphosphate 3-kinase catalytic subunit alpha isoform; assay: Inhibition of PI3Kalpha in human HDQ-P1 cells assessed as reduction in PRAS40 phosphorylation after 24 hrs by electrochemiluminescent assay; type: cell-based
# [10] = biological target: Phosphatidylinositol 4,5-bisphosphate 3-kinase catalytic subunit alpha isoform (Homo sapiens, UniProt P42336, H1047R)
# [11] = tested on: Phosphatidylinositol 4,5-bisphosphate 3-kinase catalytic subunit alpha isoform (Homo sapiens), P42336 [H1047R]; assay: Induction of P110alpha H1047R mutant degradation in human HCC1954 cells at 0.012 to 1 uM after 24 hrs; type: cell-based; settings: dose 0.012-1 µM
# [12] = biological target: T2, Phosphatidylinositol 4,5-bisphosphate 3-kinase catalytic subunit delta isoform (Homo sapiens) (UniProt O00329); assay: Inhibition of PI3Kdelta in human B-cells assessed as reduction in CD69 expression preincubated for 1 hr followed by IgM stimulation for 18 hrs by flow cytometry analysis; type: cell-based; settings: B-cell
# T2 sequence (whole entry): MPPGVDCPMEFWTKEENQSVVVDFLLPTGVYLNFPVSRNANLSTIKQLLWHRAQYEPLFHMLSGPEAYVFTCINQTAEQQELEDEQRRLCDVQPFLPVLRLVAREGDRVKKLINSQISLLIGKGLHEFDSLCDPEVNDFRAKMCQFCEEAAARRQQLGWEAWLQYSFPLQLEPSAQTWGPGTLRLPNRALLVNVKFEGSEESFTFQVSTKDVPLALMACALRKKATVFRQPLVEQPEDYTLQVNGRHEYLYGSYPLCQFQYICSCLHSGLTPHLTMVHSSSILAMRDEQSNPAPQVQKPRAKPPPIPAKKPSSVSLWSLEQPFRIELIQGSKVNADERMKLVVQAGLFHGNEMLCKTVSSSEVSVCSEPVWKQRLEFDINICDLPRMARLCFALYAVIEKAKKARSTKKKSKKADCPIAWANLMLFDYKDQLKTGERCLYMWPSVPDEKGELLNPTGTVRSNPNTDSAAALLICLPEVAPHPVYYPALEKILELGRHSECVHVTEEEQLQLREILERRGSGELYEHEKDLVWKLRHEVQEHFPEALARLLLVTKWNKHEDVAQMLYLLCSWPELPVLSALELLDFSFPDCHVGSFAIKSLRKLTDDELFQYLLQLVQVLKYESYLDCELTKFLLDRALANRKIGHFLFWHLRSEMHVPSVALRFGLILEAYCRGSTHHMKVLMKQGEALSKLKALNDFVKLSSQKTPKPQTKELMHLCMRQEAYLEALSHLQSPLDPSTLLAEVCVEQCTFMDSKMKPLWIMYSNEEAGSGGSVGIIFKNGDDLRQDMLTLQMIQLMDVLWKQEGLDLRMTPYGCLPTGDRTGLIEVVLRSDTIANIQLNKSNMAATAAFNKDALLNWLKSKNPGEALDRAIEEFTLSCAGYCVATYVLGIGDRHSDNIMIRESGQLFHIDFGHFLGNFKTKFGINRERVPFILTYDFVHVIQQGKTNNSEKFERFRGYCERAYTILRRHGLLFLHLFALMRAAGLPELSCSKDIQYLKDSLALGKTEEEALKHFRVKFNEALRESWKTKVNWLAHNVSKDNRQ
# Homo sapiens [13] = species: Homo sapiens; assay: Selectivity ratio of IC90 for inhibition of PI3Kdelta in human B-cells assessed as reduction in CD69 expression to EC50 for inhibition of PI3Kalpha H1047R mutant in human HCC1954 cells; type: cell-based
# [14] = tested on: Phosphatidylinositol 4,5-bisphosphate 3-kinase catalytic subunit alpha isoform (Homo sapiens), P42336 [H1047R]; assay: Inhibition of PI3Kalpha H1047R mutant in human HCC1954 cells assessed as reduction in PRAS40 phosphorylation after 24 hrs by electrochemiluminescent assay
# [15] = Oral bioavailability in Sprague-Dawley rat plasma at 3 mg/kg measured upto 8 hrs by LC-MS/MS method; type: ADME, organism-based
# T1 sequence (P42336 whole entry, canonical isoform): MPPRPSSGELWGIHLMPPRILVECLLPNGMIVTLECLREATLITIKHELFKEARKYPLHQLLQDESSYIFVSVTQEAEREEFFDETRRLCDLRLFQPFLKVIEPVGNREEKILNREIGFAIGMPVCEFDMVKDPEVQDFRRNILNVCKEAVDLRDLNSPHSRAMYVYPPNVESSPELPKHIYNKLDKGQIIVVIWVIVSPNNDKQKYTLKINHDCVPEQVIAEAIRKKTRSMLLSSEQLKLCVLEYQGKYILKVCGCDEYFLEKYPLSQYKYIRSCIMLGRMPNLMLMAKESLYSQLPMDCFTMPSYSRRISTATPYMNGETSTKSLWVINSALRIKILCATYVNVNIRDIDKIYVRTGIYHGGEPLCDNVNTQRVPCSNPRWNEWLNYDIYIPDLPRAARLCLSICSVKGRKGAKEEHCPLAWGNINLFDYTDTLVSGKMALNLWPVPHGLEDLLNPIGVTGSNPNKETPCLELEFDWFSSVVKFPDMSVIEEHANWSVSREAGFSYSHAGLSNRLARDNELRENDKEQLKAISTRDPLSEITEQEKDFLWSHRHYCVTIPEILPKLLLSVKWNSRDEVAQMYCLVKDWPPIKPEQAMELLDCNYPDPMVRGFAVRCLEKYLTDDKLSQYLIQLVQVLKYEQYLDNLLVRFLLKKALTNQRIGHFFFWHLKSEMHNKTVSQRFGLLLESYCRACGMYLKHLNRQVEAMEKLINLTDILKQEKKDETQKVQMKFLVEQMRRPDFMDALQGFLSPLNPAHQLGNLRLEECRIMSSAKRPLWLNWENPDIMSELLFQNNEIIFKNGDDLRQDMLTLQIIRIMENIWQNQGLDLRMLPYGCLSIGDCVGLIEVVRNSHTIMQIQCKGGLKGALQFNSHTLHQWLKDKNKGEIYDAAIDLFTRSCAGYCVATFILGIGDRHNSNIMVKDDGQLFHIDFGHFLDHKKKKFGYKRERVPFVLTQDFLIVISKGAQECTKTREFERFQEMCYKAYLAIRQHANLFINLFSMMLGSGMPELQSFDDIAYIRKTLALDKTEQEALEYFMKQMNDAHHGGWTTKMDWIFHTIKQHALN
# Sequence of Phosphatidylinositol 4,5-bisphosphate 3-kinase catalytic subunit alpha isoform (Homo sapiens, UniProt P42336, H1047R) (P42336 whole entry H1047R, canonical isoform): as the sequence (P42336 whole entry, canonical isoform) above, with H1047R counted along it
# Sequence of Phosphatidylinositol 4,5-bisphosphate 3-kinase catalytic subunit alpha isoform (Homo sapiens), P42336 [H1047R] (P42336 whole entry H1047R, canonical isoform): as the sequence (P42336 whole entry, canonical isoform) above, with H1047R counted along it
Compound,Ki [1],Ratio Ki (Homo sapiens [2]),logD [4],solubility kinetic [5],"Papp A→B at 3 h, 10 µM [6]",clearance [7],bioavailability [8],EC50 [9],EC50 [10],Activity [11],IC90 [12],inhibition [14],bioavailability [15],Ratio EC50 (Homo sapiens [3]),Selectivity ratio (Homo sapiens [13])
NC(=O)[C@@H]1CCCN1c1ccc2c(c1)OCCn1cc(N3CC[C@H](O)C3=O)nc1-2,0.355 nM,13,0.4,143 µM,0.3 ×10⁻⁶ cm/s,27 mL/min/kg,9%,327 nM,63 nM,,,,,5.2,
Cc1nc(-c2cn3c(n2)-c2ccc(-c4cnn(C(C)(C)C(N)=O)c4)cc2OCC3)n(C(C)C)n1 [TASELISIB],,,2.3,,,,,,,,3.1 nM,,,,
CC(C)n1nc(N)nc1-c1cn2c(n1)-c1ccc(O[C@@H](C)C(N)=O)cc1OCC2,0.107 nM,17,1.1,,0.5 ×10⁻⁶ cm/s,,,,65 nM,,,,,3.1,
NC(=O)[C@@H]1CCCN1c1ccc2c(c1)OCCn1cc(N3C(=O)OC[C@H]3CF)nc1-2,,46,0.8,159 µM,2.6 ×10⁻⁶ cm/s,,,,,Active,,Active,,,
C[C@H](Oc1ccc2c(c1)OCCn1cc(-c3nc(CO)nn3CC(F)(F)F)nc1-2)C(N)=O,0.062 nM,15,1.5,,1.5 ×10⁻⁶ cm/s,50 mL/min/kg,5%,,39 nM,,,,,9.5,
CC(C)n1ncnc1-c1cn2c(n1)-c1ccc(O[C@@H](C)C(N)=O)cc1OCC2,,,1.9,,,,,,,,147 nM,,,,

# More lines, main results first:
Ki [1],Ratio Ki (Homo sapiens [2]),logD [4],solubility kinetic [5],"Papp A→B at 3 h, 10 µM [6]",clearance [7],bioavailability [8],EC50 [9],EC50 [10],Activity [11],IC90 [12],inhibition [14],bioavailability [15],Compound,Ratio EC50 (Homo sapiens [3]),Selectivity ratio (Homo sapiens [13])
0.095 nM,171,0.9,,1 ×10⁻⁶ cm/s,57 mL/min/kg,65%,,49 nM,,,,,C[C@H](Nc1ccc2c(c1)OCCn1cc(N3C(=O)OC[C@H]3C(F)(F)F)nc1-2)C(N)=O,2.7,
,34,1.3,11 µM,4.3 ×10⁻⁶ cm/s,41 mL/min/kg,35%,,,Active,103 nM,Active,,NC(=O)[C@@H]1CCCN1c1ccc2c(c1)OCCn1cc(N3C(=O)OC[C@H]3C(F)F)nc1-2,,6.4
,24,0.7,150 µM,2.1 ×10⁻⁶ cm/s,23 mL/min/kg,59%,,,,,,,C[C@@H]1COC(=O)N1c1cn2c(n1)-c1ccc(N3CCC[C@H]3C(N)=O)cc1OCC2,,
0.692 nM,94,1.7,,1.9 ×10⁻⁶ cm/s,61 mL/min/kg,137%,,157 nM,,,,,CC(C)[C@H](Nc1ccc2c(c1)OCCn1cc(N3C(=O)OC[C@H]3C(F)(F)F)nc1-2)C(N)=O,2.3,
0.1 nM,285,1.2,,1.1 ×10⁻⁶ cm/s,94 mL/min/kg,,,52 nM,,,,98%,NC(=O)[C@@H](Nc1ccc2c(c1)OCCn1cc(N3C(=O)OC[C@H]3C(F)(F)F)nc1-2)C1CC1,1.1,
0.157 nM,146,1.4,,1.7 ×10⁻⁶ cm/s,91 mL/min/kg,82%,,56 nM,,,,,CC[C@H](Nc1ccc2c(c1)OCCn1cc(N3C(=O)OC[C@H]3C(F)(F)F)nc1-2)C(N)=O,3.6,
,,1.2,,3.2 ×10⁻⁶ cm/s,67 mL/min/kg,41%,,28 nM,Active,307 nM,,,NC(=O)[C@@H](Nc1ccc2c(c1)OCCn1cc(N3C(=O)OC[C@H]3C(F)F)nc1-2)C1CC1,,
0.15 nM,15,1.4,130 µM,3.2 ×10⁻⁶ cm/s,35 mL/min/kg,57%,,40 nM,Active,,,,NC(=O)[C@@H]1CCCN1c1ccc2c(c1)OCCn1cc(N3C(=O)OC[C@H]3C(F)(F)F)nc1-2,,

# — ChEMBL document CHEMBL5150064 (J Med Chem, 2022)
